According to patent US20020137929A1, “1 - (3-heterocyclylphenyl) isothiourea, -isourea, -guanidine and -amidine herbicidal agents” (Intellectual Property Department, BASF Aktiengesellschaft, priority 1998, published 2002):

Columns and labels:
[1] = test system: CHEAL (Lambsquarters, Common); test: Postemergence herbicidal evaluation; format: in vivo, Chenopodium album; settings: postemergence
Summary of the method: (§1)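 ~2-wk seedlings; postemergence spray, 40 psi; vehicle 1:1 acetone:water + 0.5% Tween 20; rate ≈0.0156–0.500 kg/ha; greenhouse hold; scored 4–5 wk after treatment, 0–9 scale vs control; repeat tests averaged.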

CYPSE (Flatsedge) = test: Postemergence weed control under flooded paddy conditions; format: in vivo, Cyperus serotinus; settings: postemergence weeds, rated 3 to 4 weeks after treatment
Summary of the method: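 Herbicidal effect is judged by eye on a 0–9 scale versus control, 3–4 weeks after dosing. Dosing is into flood water kept 1.5–3 cm over the soil, at about 0.0313–0.500 kg/ha in aqueous/acetone 50/50 v/v, on 3–5 cm weeds and 1.5–2.5-leaf rice seedlings.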

[2] = test system: TRZAWR (Wheat, Winter, cv Riband); test: Preemergence herbicidal evaluation; format: in vivo, Triticum aestivum; settings: rated 4-5 weeks after treatment
Summary of the method: (§2)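 Visual 0-9 rating vs control (stand, vigor, malformation, size, chlorosis, overall appearance), scored 4-5 wk after spraying. Seeded soil cups were treated preemergence with compound in aqueous acetone, ~0.0156-0.500 kg/ha equivalent.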

ZEAMX (Corn, Field) = test: Preemergence herbicidal evaluation; format: in vivo, Zea mays; settings: rated 4-5 weeks after treatment
Summary of the method: as §2

[3] = test system: GLXMAW (Soybean, Williams); test: Preemergence herbicidal evaluation; format: in vivo, Glycine max, (L.) Merr. cv Williams; settings: rated 4-5 weeks after treatment
Summary of the method: as §2

[4] = test system: SAGPY (Arrowhead (Pygmaea)); test: Preemergence weed control under flooded paddy conditions; format: in vivo, Sagittaria pygmaea; settings: rated 3-4 weeks after treatment
Summary of the method: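 Silt loam, seeds in top 0.5 cm; flood held 1.5-3 cm; test cpd as acetone/water 50/50 into flood water, ~0.0313-0.500 kg/ha a.i.; greenhouse 3-4 wk; visual 0-9 score vs control.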

SETVI (Foxtail, Green) = test: Preemergence herbicidal evaluation; format: in vivo, Setaria viridis; settings: rated 4-5 weeks after treatment
Summary of the method: as §2

ORYSAT (Rice, Tebonnet) [5] = test: Postemergence herbicidal evaluation; format: in vivo, Oryza sativa, (L.) Tebonnet; settings: postemergence
Summary of the method: as §1

ORYSAT (Rice, Tebonnet) [6] = test: Preemergence herbicidal evaluation; format: in vivo, Oryza sativa, (L.) Tebonnet; settings: rated 4-5 weeks after treatment
Summary of the method: as §2

GALAP (Galium) = test: Preemergence herbicidal evaluation; format: in vivo, Galium aparine; settings: rated 4-5 weeks after treatment
Summary of the method: as §2

CASOB (Sicklepod) = test: Postemergence herbicidal evaluation; format: in vivo, Cassia obtusifolia; settings: postemergence
Summary of the method: as §1

ECHCG (Barnyardgrass) = test: Postemergence herbicidal evaluation; format: in vivo, Echinochloa crus-galli; settings: postemergence
Summary of the method: as §1

CYPIR (Rice Flatsedge) = test: Preemergence weed control under flooded paddy conditions; format: in vivo, Cyperus iria; settings: rated 3-4 weeks after treatment
Summary of the method: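 Ratings on a 0-9 visual scale cover stand, vigor, malformation, size, chlorosis and overall appearance relative to a control, taken three to four weeks post-treatment. Application was into flood water over freshly sown silt loam at roughly 0.0313 to 0.500 kg/ha.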

## Cn1c(C(F)(F)F)cc(=O)n(-c2cc(N=C3SCC(=O)N3C3CCOC3=O)c(Cl)cc2F)c1=O (stereo not drawn) [Compound 73]
[1]; rate 0.0158 kg/ha
  CHEAL herbicidal rating: 4.0
[1]; rate 0.0315 kg/ha
  CHEAL herbicidal rating: 9.0
[1]; rate 0.0630 kg/ha
  CHEAL herbicidal rating: 9.0
CYPSE (Flatsedge); Rate 0.1250 kg/ha
  Herbicidal rating CYPSE: 2.0
CYPSE (Flatsedge); Rate 0.2500 kg/ha
  Herbicidal rating CYPSE: 4.0
[2]; rate 0.0156 kg/ha
  Preemergence herbicidal rating TRZAWR: 0.0
[2]; rate 0.0313 kg/ha
  Preemergence herbicidal rating TRZAWR: 0.0
[2]; rate 0.0625 kg/ha
  Preemergence herbicidal rating TRZAWR: 1.0
[2]; rate 0.1250 kg/ha
  Preemergence herbicidal rating TRZAWR: 3.0
[2]; rate 0.2500 kg/ha
  Preemergence herbicidal rating TRZAWR: 4.0
ZEAMX (Corn, Field); rate 0.0156 kg/ha
  Preemergence herbicidal rating ZEAMX: 0.0
ZEAMX (Corn, Field); rate 0.0313 kg/ha
  Preemergence herbicidal rating ZEAMX: 0.0
ZEAMX (Corn, Field); rate 0.0625 kg/ha
  Preemergence herbicidal rating ZEAMX: 1.0
ZEAMX (Corn, Field); rate 0.1250 kg/ha
  Preemergence herbicidal rating ZEAMX: 4.0
ZEAMX (Corn, Field); rate 0.2500 kg/ha
  Preemergence herbicidal rating ZEAMX: 7.0
[3]; rate 0.0156 kg/ha
  Preemergence herbicidal rating GLXMAW: 0.0
[3]; rate 0.0313 kg/ha
  Preemergence herbicidal rating GLXMAW: 1.0
[3]; rate 0.0625 kg/ha
  Preemergence herbicidal rating GLXMAW: 1.0
[3]; rate 0.1250 kg/ha
  Preemergence herbicidal rating GLXMAW: 1.0
[3]; rate 0.2500 kg/ha
  Preemergence herbicidal rating GLXMAW: 9.0
[4]; 0.1250 kg/ha
  SAGPY herbicidal effect rating: 3.0
[4]; 0.2500 kg/ha
  SAGPY herbicidal effect rating: 4.0
SETVI (Foxtail, Green); rate 0.0156 kg/ha
  Preemergence herbicidal rating SETVI: 0.0
SETVI (Foxtail, Green); rate 0.0313 kg/ha
  Preemergence herbicidal rating SETVI: 1.0
SETVI (Foxtail, Green); rate 0.0625 kg/ha
  Preemergence herbicidal rating SETVI: 0.0
SETVI (Foxtail, Green); rate 0.1250 kg/ha
  Preemergence herbicidal rating SETVI: 9.0
SETVI (Foxtail, Green); rate 0.2500 kg/ha
  Preemergence herbicidal rating SETVI: 9.0
ORYSAT (Rice, Tebonnet) [5]; rate 0.0158 kg/ha
  ORYSAT herbicidal rating: 2.5
ORYSAT (Rice, Tebonnet) [5]; rate 0.0315 kg/ha
  ORYSAT herbicidal rating: 3.0
ORYSAT (Rice, Tebonnet) [5]; rate 0.0630 kg/ha
  ORYSAT herbicidal rating: 4.0
ORYSAT (Rice, Tebonnet) [6]; rate 0.0156 kg/ha
  Preemergence herbicidal rating ORYSAT: 0.0
ORYSAT (Rice, Tebonnet) [6]; rate 0.0313 kg/ha
  Preemergence herbicidal rating ORYSAT: 0.0
ORYSAT (Rice, Tebonnet) [6]; rate 0.0625 kg/ha
  Preemergence herbicidal rating ORYSAT: 2.0
ORYSAT (Rice, Tebonnet) [6]; rate 0.1250 kg/ha
  Preemergence herbicidal rating ORYSAT: 2.0
ORYSAT (Rice, Tebonnet) [6]; rate 0.2500 kg/ha
  Preemergence herbicidal rating ORYSAT: 4.0
GALAP (Galium); rate 0.0156 kg/ha
  Preemergence herbicidal rating GALAP: 0.0
GALAP (Galium); rate 0.0313 kg/ha
  Preemergence herbicidal rating GALAP: 0.0
GALAP (Galium); rate 0.0625 kg/ha
  Preemergence herbicidal rating GALAP: 0.0
GALAP (Galium); rate 0.1250 kg/ha
  Preemergence herbicidal rating GALAP: 4.0
GALAP (Galium); rate 0.2500 kg/ha
  Preemergence herbicidal rating GALAP: 9.0
CASOB (Sicklepod); rate 0.0158 kg/ha
  CASOB herbicidal rating: 1.0
CASOB (Sicklepod); rate 0.0315 kg/ha
  CASOB herbicidal rating: 7.0
CASOB (Sicklepod); rate 0.0630 kg/ha
  CASOB herbicidal rating: 7.0
ECHCG (Barnyardgrass); rate 0.0158 kg/ha
  ECHCG herbicidal rating: 2.0
ECHCG (Barnyardgrass); rate 0.0315 kg/ha
  ECHCG herbicidal rating: 2.0
ECHCG (Barnyardgrass); rate 0.0630 kg/ha
  ECHCG herbicidal rating: 3.0
CYPIR (Rice Flatsedge); 0.1250 kg/ha
  CYPIR herbicidal effect rating: 0.0
CYPIR (Rice Flatsedge); 0.2500 kg/ha
  CYPIR herbicidal effect rating: 6.0
